# In US20130252988A1, “COMPOSITIONS AND METHODS FOR TREATING MYELOFIBROSIS” (TARGEGEN, INC., priority 2010, published 2013):
# Entries after “also recorded” stand apart in the source; their conditions may differ. Where a name gives a salt, the structure may show the parent alone. Read-outs that look alike come from different tables or passages of the source. Marks after values point to notes of the source that are not given here.
# System: subjects with myelofibrosis
# Details: for Abdominal pain Severity Grade 1-2, subjects n (%) / Abdominal pain Severity Grade 3-4, subjects n (%) / Alanine aminotransferase increased Severity Grade 1-2, subjects n (%) / Alanine aminotransferase increased Severity Grade 3-4, subjects n (%) / Anorexia Severity Grade 1-2, subjects n (%) / Anorexia Severity Grade 3-4, subjects n (%) / Aspartate aminotransferase increased Severity Grade 1-2, subjects n (%) / Aspartate aminotransferase increased Severity Grade 3-4, subjects n (%) / Blood alkaline phosphatase increased Severity Grade 1-2, subjects n (%) / Blood alkaline phosphatase increased Severity Grade 3-4, subjects n (%) / Blood creatinine increased Severity Grade 1-2, subjects n (%) / Blood creatinine increased Severity Grade 3-4, subjects n (%) / Diarrhea Severity Grade 1-2, subjects n (%) / Diarrhea Severity Grade 3-4, subjects n (%) / Dry skin Severity Grade 1-2, subjects n (%) / Dry skin Severity Grade 3-4, subjects n (%) / Edema peripheral Severity Grade 1-2, subjects n (%) / Edema peripheral Severity Grade 3-4, subjects n (%) / Hyperlipasemia Severity Grade 1-2, subjects n (%) / Hyperlipasemia Severity Grade 3-4, subjects n (%) / Hypocalcemia Severity Grade 1-2, subjects n (%) / Hypocalcemia Severity Grade 3-4, subjects n (%) / Nausea Severity Grade 1-2, subjects n (%) / Nausea Severity Grade 3-4, subjects n (%) / Skin exfoliation Severity Grade 1-2, subjects n (%) / Skin exfoliation Severity Grade 3-4, subjects n (%) / Vomiting Severity Grade 1-2, subjects n (%) / Vomiting Severity Grade 3-4, subjects n (%): Table 9: AE at least possibly related to TG101348; for Neutropenia Severity Grade 1-2, subjects n (%) / Neutropenia Severity Grade 3-4, subjects n (%) / Thrombocytopenia Severity Grade 1-2, subjects n (%) / Thrombocytopenia Severity Grade 3-4, subjects n (%) / Anemia Severity Grade 1-2, subjects n (%) / Anemia Severity Grade 3-4, subjects n (%): Table 10: at least possibly related
# [1] = Table 5: treatment-emergent non-hematologic laboratory finding, MTD subjects (N = 40)
# [2] = All Subjects, not transfusion dependent at study entry (n = 37)
# [3] = MTD Cohort, not transfusion dependent at study entry (n = 24)
# [4] = overall, at least possibly related
# [5] = subject 106-024, 800/680 mg/day, onset day 87, stopped temporarily, Recovered/resolved
smiles,measurement,setting,value
"Cc1cnc(Nc2ccc(OCCN3CCCC3)cc2)nc1Nc1cccc(S(=O)(=O)NC(C)(C)C)c1 [TG101348, N-tert-butyl-3-[(5-methyl-2-{[4-(2-pyrrolidin-1-ylethoxy)phenyl]amino}pyrimidin-4-yl)amino]benzenesulfonamide dihydrochloride monohydrate]","Hyperkalemia Grade 4, subjects n (%)",[1],1 (3%)
same,"Hyperlipasemia Grade 2, subjects n (%)",[1],4 (10%)
same,"Hyperlipasemia Grade 3, subjects n (%)",[1],3 (8%)
same,"Hyperlipasemia Grade 4, subjects n (%)",[1],2 (5%)
same,"Hypocalcemia Grade 2, subjects n (%)",[1],8 (20%)
same,"Hypocalcemia Grade 3, subjects n (%)",[1],3 (8%)
same,"Hypocalcemia Grade 4, subjects n (%)",[1],0
same,"Abdominal pain Severity Grade 1-2, subjects n (%)",All Subjects (n = 59),6 (10.2%)
same,"Abdominal pain Severity Grade 3-4, subjects n (%)",All Subjects (n = 59),0
same,"Alanine aminotransferase increased Severity Grade 1-2, subjects n (%)",All Subjects (n = 59),11 (18.6%)
same,"Alanine aminotransferase increased Severity Grade 3-4, subjects n (%)",All Subjects (n = 59),4 (6.8%)
same,"Anorexia Severity Grade 1-2, subjects n (%)",All Subjects (n = 59),8 (13.6%)
same,"Anorexia Severity Grade 3-4, subjects n (%)",All Subjects (n = 59),0
same,"Aspartate aminotransferase increased Severity Grade 1-2, subjects n (%)",All Subjects (n = 59),15 (25.4%)
same,"Aspartate aminotransferase increased Severity Grade 3-4, subjects n (%)",All Subjects (n = 59),1 (1.7%)
same,"Blood alkaline phosphatase increased Severity Grade 1-2, subjects n (%)",All Subjects (n = 59),10 (16.9%)
same,"Blood alkaline phosphatase increased Severity Grade 3-4, subjects n (%)",All Subjects (n = 59),0
same,"Blood creatinine increased Severity Grade 1-2, subjects n (%)",All Subjects (n = 59),14 (23.7%)
same,"Blood creatinine increased Severity Grade 3-4, subjects n (%)",All Subjects (n = 59),0
same,"Diarrhea Severity Grade 1-2, subjects n (%)",All Subjects (n = 59),32 (54.2%)
same,"Diarrhea Severity Grade 3-4, subjects n (%)",All Subjects (n = 59),6 (10.2%)
same,"Dry skin Severity Grade 1-2, subjects n (%)",All Subjects (n = 59),6 (10.2%)
same,"Dry skin Severity Grade 3-4, subjects n (%)",All Subjects (n = 59),0
same,"Edema peripheral Severity Grade 1-2, subjects n (%)",All Subjects (n = 59),6 (10.2%)
same,"Edema peripheral Severity Grade 3-4, subjects n (%)",All Subjects (n = 59),0
same,"Hyperlipasemia Severity Grade 1-2, subjects n (%)",All Subjects (n = 59),10 (16.9%)
same,"Hyperlipasemia Severity Grade 3-4, subjects n (%)",All Subjects (n = 59),6 (10.2%)
same,"Hypocalcemia Severity Grade 1-2, subjects n (%)",All Subjects (n = 59),7 (11.9%)
same,"Hypocalcemia Severity Grade 3-4, subjects n (%)",All Subjects (n = 59),1 (1.7%)
same,"Nausea Severity Grade 1-2, subjects n (%)",All Subjects (n = 59),39 (66.1%)
same,"Nausea Severity Grade 3-4, subjects n (%)",All Subjects (n = 59),2 (3.4%)
same,"Skin exfoliation Severity Grade 1-2, subjects n (%)",All Subjects (n = 59),8 (13.6%)
same,"Skin exfoliation Severity Grade 3-4, subjects n (%)",All Subjects (n = 59),0
same,"Vomiting Severity Grade 1-2, subjects n (%)",All Subjects (n = 59),32 (54.2%)
same,"Vomiting Severity Grade 3-4, subjects n (%)",All Subjects (n = 59),2 (3.4%)
same,"Abdominal pain Severity Grade 1-2, subjects n (%)",MTD Cohort (n = 40),4 (10.0%)
same,"Abdominal pain Severity Grade 3-4, subjects n (%)",MTD Cohort (n = 40),0
same,"Alanine aminotransferase increased Severity Grade 1-2, subjects n (%)",MTD Cohort (n = 40),9 (22.5%)
same,"Alanine aminotransferase increased Severity Grade 3-4, subjects n (%)",MTD Cohort (n = 40),3 (7.5%)
same,"Anorexia Severity Grade 1-2, subjects n (%)",MTD Cohort (n = 40),6 (15.0%)
same,"Anorexia Severity Grade 3-4, subjects n (%)",MTD Cohort (n = 40),0
same,"Aspartate aminotransferase increased Severity Grade 1-2, subjects n (%)",MTD Cohort (n = 40),13 (32.5%)
same,"Aspartate aminotransferase increased Severity Grade 3-4, subjects n (%)",MTD Cohort (n = 40),1 (2.5%)
same,"Blood alkaline phosphatase increased Severity Grade 1-2, subjects n (%)",MTD Cohort (n = 40),9 (22.5%)
same,"Blood alkaline phosphatase increased Severity Grade 3-4, subjects n (%)",MTD Cohort (n = 40),0
same,"Blood creatinine increased Severity Grade 1-2, subjects n (%)",MTD Cohort (n = 40),11 (27.5%)
same,"Blood creatinine increased Severity Grade 3-4, subjects n (%)",MTD Cohort (n = 40),0
same,"Diarrhea Severity Grade 1-2, subjects n (%)",MTD Cohort (n = 40),25 (62.5%)
same,"Diarrhea Severity Grade 3-4, subjects n (%)",MTD Cohort (n = 40),5 (12.5%)
same,"Dry skin Severity Grade 1-2, subjects n (%)",MTD Cohort (n = 40),6 (15%)
same,"Dry skin Severity Grade 3-4, subjects n (%)",MTD Cohort (n = 40),0
same,"Edema peripheral Severity Grade 1-2, subjects n (%)",MTD Cohort (n = 40),4 (10.0%)
same,"Edema peripheral Severity Grade 3-4, subjects n (%)",MTD Cohort (n = 40),0
same,"Hyperlipasemia Severity Grade 1-2, subjects n (%)",MTD Cohort (n = 40),9 (22.5%)
same,"Hyperlipasemia Severity Grade 3-4, subjects n (%)",MTD Cohort (n = 40),6 (15.0%)
same,"Hypocalcemia Severity Grade 1-2, subjects n (%)",MTD Cohort (n = 40),6 (15.0%)
same,"Hypocalcemia Severity Grade 3-4, subjects n (%)",MTD Cohort (n = 40),1 (2.5%)
same,"Nausea Severity Grade 1-2, subjects n (%)",MTD Cohort (n = 40),31 (77.5%)
same,"Nausea Severity Grade 3-4, subjects n (%)",MTD Cohort (n = 40),2 (5.0%)
same,"Skin exfoliation Severity Grade 1-2, subjects n (%)",MTD Cohort (n = 40),8 (20.0%)
same,"Skin exfoliation Severity Grade 3-4, subjects n (%)",MTD Cohort (n = 40),0
same,"Vomiting Severity Grade 1-2, subjects n (%)",MTD Cohort (n = 40),27 (67.5%)
same,"Vomiting Severity Grade 3-4, subjects n (%)",MTD Cohort (n = 40),1 (2.5%)
same,"Neutropenia Severity Grade 1-2, subjects n (%)",All Subjects (n = 59),2 (3.4%)
same,"Neutropenia Severity Grade 3-4, subjects n (%)",All Subjects (n = 59),6 (10.2%)
same,"Thrombocytopenia Severity Grade 1-2, subjects n (%)",All Subjects (n = 59),10 (17.0%)
same,"Thrombocytopenia Severity Grade 3-4, subjects n (%)",All Subjects (n = 59),14 (23.7%)
same,"Anemia Severity Grade 1-2, subjects n (%)",[2],3 (8.1%)
same,"Anemia Severity Grade 3-4, subjects n (%)",[2],13 (35.1%)
same,"Neutropenia Severity Grade 1-2, subjects n (%)",MTD Cohort (n = 40),2 (5.0%)
same,"Neutropenia Severity Grade 3-4, subjects n (%)",MTD Cohort (n = 40),4 (10.0%)
same,"Thrombocytopenia Severity Grade 1-2, subjects n (%)",MTD Cohort (n = 40),8 (20.0%)
same,"Thrombocytopenia Severity Grade 3-4, subjects n (%)",MTD Cohort (n = 40),11 (27.5%)
same,"Anemia Severity Grade 1-2, subjects n (%)",[3],2 (8.3%)
same,"Anemia Severity Grade 3-4, subjects n (%)",[3],13 (54.2%)
same,"Grade 3/4 neutropenia considered related to TG101348, subjects",all subjects,10%
same,"Grade 3/4 thrombocytopenia considered related to TG101348, subjects",all subjects,24%
same,Dose-limiting toxicity (DLT),"at 800 mg/day, dihydrochloride monohydrate",asymptomatic grade 3 or 4 amylasemia/lipasemia that was reversible; also recorded: asymptomatic grade 3 or 4 hyperamylasemia (with or without hyperlipasemia) that was reversible
same,Safety findings with continued dosing beyond 6 cycles,"at data cutoff, extension study",no unique safety findings have emerged
same,Cytokine rebound upon discontinuation of TG101348,"discontinued without prior dose reduction or tapering, dihydrochloride monohydrate",absence of immediate adverse cytokine-rebound phenomenon; also recorded: did not experience “cytokine rebound”
same,"Discontinuation because of adverse events during the extension study, number of subjects",following a total of 24 to 46 weeks on therapy,3
same,Subjects with disease progression,"hepatosplenomegaly/ascites, accelerated myelofibrosis, leukemic transformation",Three
same,"Emergence of transfusion requirement, subjects",initiated treatment at 680 mg/day,72%
same,"Emergence of transfusion requirement, subjects",initiated treatment at 240-520 mg/day,33%
same,"Grade 3/4 anemia considered related to TG101348, subjects",of 37 subjects not transfusion dependent at baseline,35%
same,Maximum tolerated dose (MTD),"oral once daily, dose escalation 30 to 800 mg/day",680 mg/day
same,"Grades 3/4 asymptomatic increase in ALT, subjects",overall,7%
same,"Grades 3/4 asymptomatic increase in AST, subjects",overall,2%
same,"Grades 3/4 asymptomatic increase in serum lipase, subjects",overall,10%
same,"Grades 3/4 increase in alkaline phosphatase, subjects",overall,0%
same,"Grades 3/4 increase in creatinine, subjects",overall,0%
same,"Grade 4 nausea, diarrhea and vomiting",overall and MTD cohort,no Grade 4 events
same,"Grade 3 diarrhea, subjects",[4],10%
same,"Grade 3 nausea, subjects",[4],3%
same,"Grade 3 vomiting, subjects",[4],3%
same,Tolerability,"patients with myelofibrosis, dihydrochloride monohydrate",generally well tolerated
same,Serious adverse event Neutropenia: CTCAE Severity Grade,"subject 101-047, 680/680 mg/day, onset day 52, stopped temporarily, Recovered/resolved",2
same,Serious adverse event Depression: CTCAE Severity Grade,"subject 104-015, 360/520 mg/day, onset day 256, permanently discontinued, Not recovered/not resolved, died (suicide) approximately 12 weeks after discontinuation",3*
same,Serious adverse event Hyperlipasemia: CTCAE Severity Grade,"subject 105-013, 240/0 mg/day, onset day 356, action none, Recovered/resolved",4
same,Serious adverse event Thrombocytopenia: CTCAE Severity Grade,"subject 105-013, 240/360 mg/day, onset day 247, permanently discontinued, Not recovered/not resolved",4
same,Serious adverse event Thrombocytopenia: CTCAE Severity Grade,"subject 105-013, starting dose/dose at event 240/360 mg/day, onset day 215, action none, Recovered/resolved",4
same,Serious adverse event Gallbladder pain: CTCAE Severity Grade,"subject 105-056, 680/520 mg/day, onset day 95, stopped temporarily, Recovered/resolved with sequelae",3
same,Serious adverse event Cerebrovascular accident: CTCAE Severity Grade,"subject 105-056, 680/680 mg/day, onset day 22, stopped temporarily, Recovered/resolved",4
same,Serious adverse event Cardiac arrest: CTCAE Severity Grade,"subject 105-059, 680/360 mg/day, onset day 42, permanently discontinued, Fatal",5
same,Serious adverse event Hyperlipasemia: CTCAE Severity Grade,"subject 105-059, 680/520 mg/day, onset day 28, stopped temporarily, Recovered/resolved",3
same,Serious adverse event Hyperlipasemia: CTCAE Severity Grade,"subject 105-059, 680/680 mg/day, onset day 8, stopped temporarily, Recovered/resolved",3
same,Serious adverse event Dehydration: CTCAE Severity Grade,"subject 106-024, 800/400 mg/day, onset day 474, action none, Recovered/resolved",3
same,Serious adverse event Tumor lysis syndrome: CTCAE Severity Grade,"subject 106-024, 800/440 mg/day, onset day 366, stopped temporarily, Recovered/resolved",3
same,Serious adverse event Dehydration: CTCAE Severity Grade,[5],2
same,Serious adverse event Diarrhea: CTCAE Severity Grade,[5],3
same,Serious adverse event Nausea: CTCAE Severity Grade,[5],2
same,Serious adverse event Vomiting: CTCAE Severity Grade,[5],2
same,Serious adverse event Pleuritic pain: CTCAE Severity Grade,"subject 106-033, 680/680 mg/day, onset day 8, stopped temporarily, Recovered/resolved",2
same,Serious adverse event Dehydration: CTCAE Severity Grade,"subject 106-045, 680/440 mg/day, onset day 170, stopped temporarily, Recovered/resolved",3
